Columns and labels:
Test in all cases: Radiolabeled ATP kinase assay, panel of 60 kinases (Table S5)
Assay type in all cases: biochemical
[1] = target: T1, panel of 60 human kinases (Homo sapiens, UniProt O14965); details: Aurora A; 0.1 μM; 10 μM ATP; read-out: % Enzyme Activity (relative to DSMO controls)
T1 construct: purchased Reaction Biology Corp
T1 sequence (O14965 1-403): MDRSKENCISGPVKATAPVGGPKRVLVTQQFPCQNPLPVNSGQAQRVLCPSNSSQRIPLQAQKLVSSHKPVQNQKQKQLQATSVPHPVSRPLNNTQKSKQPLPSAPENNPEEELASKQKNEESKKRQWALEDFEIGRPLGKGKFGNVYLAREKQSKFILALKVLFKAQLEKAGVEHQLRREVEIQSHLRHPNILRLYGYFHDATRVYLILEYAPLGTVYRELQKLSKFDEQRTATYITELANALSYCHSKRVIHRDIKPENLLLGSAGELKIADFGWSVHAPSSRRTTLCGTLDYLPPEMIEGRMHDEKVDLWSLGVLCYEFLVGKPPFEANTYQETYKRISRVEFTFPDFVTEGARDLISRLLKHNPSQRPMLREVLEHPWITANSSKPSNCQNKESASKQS
How it was run: (§1)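 Compounds at two concentrations, 0.1 μM and 0.5 μM, were screened for inhibition of 60 kinases in cell-free assays read out by radiolabeled ATP.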

[2] = target: T2, panel of 60 human kinases (Homo sapiens, UniProt O15264); details: P38d/MAPK13; 0.1 μM; 10 μM ATP; read-out: % Enzyme Activity (relative to DSMO controls)
T2 construct: purchased Reaction Biology Corp
T2 sequence (O15264 1-365): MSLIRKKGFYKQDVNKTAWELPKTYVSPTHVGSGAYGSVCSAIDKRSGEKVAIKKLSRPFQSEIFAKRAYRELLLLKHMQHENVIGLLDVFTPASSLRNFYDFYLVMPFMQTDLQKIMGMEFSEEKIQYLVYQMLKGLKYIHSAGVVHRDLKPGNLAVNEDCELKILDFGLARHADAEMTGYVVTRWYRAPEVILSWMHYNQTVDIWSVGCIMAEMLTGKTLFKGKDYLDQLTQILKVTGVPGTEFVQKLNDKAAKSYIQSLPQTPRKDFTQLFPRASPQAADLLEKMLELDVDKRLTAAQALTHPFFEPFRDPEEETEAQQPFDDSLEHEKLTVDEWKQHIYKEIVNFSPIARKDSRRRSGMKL
How it was run: as §1

[3] = target: T3, panel of 60 human kinases (Homo sapiens, UniProt O75460); details: ERN1/IRE1; 0.1 μM; 10 μM ATP; read-out: % Enzyme Activity (relative to DSMO controls)
T3 construct: purchased Reaction Biology Corp
How it was run: as §1

[4] = target: T4, panel of 60 human kinases (Homo sapiens, UniProt P35916); details: FLT4/VEGFR3; 0.1 μM; 10 μM ATP; read-out: % Enzyme Activity (relative to DSMO controls)
T4 construct: purchased Reaction Biology Corp
How it was run: as §1

[5] = target: T5, panel of 60 human kinases (Homo sapiens, UniProt P49840); details: GSK3a; 0.1 μM; 10 μM ATP; read-out: % Enzyme Activity (relative to DSMO controls)
T5 construct: purchased Reaction Biology Corp
How it was run: as §1

[6] = target: T6, panel of 60 human kinases (Homo sapiens, UniProt Q9H2K8); details: TAOK3/JIK; 0.1 μM; 10 μM ATP; read-out: % Enzyme Activity (relative to DSMO controls)
T6 construct: purchased Reaction Biology Corp
T6 sequence (Q9H2K8 1-898): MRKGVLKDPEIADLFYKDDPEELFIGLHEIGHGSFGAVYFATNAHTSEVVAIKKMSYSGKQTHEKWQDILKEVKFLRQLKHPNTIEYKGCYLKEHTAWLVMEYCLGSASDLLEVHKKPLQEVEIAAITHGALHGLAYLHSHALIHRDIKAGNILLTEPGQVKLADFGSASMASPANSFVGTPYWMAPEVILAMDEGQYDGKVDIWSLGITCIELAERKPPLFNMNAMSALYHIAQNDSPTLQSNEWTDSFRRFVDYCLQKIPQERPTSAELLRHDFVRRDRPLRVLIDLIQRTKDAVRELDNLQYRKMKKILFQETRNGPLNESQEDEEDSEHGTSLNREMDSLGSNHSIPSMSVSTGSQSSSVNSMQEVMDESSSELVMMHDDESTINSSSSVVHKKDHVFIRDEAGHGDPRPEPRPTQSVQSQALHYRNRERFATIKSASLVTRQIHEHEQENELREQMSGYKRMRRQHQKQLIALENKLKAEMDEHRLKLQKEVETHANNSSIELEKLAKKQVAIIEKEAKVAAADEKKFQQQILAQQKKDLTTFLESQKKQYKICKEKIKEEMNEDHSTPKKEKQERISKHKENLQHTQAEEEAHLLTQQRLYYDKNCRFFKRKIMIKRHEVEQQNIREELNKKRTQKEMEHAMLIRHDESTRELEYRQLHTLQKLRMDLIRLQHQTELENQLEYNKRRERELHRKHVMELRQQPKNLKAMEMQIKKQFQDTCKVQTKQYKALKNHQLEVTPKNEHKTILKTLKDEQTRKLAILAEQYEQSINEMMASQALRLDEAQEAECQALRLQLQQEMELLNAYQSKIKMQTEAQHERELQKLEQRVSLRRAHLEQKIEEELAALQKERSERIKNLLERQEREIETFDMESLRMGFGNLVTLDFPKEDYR
How it was run: as §1

[7] = target: T7, panel of 60 human kinases (Homo sapiens, UniProt Q9UKE5); details: TNIK; 0.1 μM; 10 μM ATP; read-out: % Enzyme Activity (relative to DSMO controls)
T7 construct: purchased Reaction Biology Corp
How it was run: as §1

T4 sequence (P35916 25-1363): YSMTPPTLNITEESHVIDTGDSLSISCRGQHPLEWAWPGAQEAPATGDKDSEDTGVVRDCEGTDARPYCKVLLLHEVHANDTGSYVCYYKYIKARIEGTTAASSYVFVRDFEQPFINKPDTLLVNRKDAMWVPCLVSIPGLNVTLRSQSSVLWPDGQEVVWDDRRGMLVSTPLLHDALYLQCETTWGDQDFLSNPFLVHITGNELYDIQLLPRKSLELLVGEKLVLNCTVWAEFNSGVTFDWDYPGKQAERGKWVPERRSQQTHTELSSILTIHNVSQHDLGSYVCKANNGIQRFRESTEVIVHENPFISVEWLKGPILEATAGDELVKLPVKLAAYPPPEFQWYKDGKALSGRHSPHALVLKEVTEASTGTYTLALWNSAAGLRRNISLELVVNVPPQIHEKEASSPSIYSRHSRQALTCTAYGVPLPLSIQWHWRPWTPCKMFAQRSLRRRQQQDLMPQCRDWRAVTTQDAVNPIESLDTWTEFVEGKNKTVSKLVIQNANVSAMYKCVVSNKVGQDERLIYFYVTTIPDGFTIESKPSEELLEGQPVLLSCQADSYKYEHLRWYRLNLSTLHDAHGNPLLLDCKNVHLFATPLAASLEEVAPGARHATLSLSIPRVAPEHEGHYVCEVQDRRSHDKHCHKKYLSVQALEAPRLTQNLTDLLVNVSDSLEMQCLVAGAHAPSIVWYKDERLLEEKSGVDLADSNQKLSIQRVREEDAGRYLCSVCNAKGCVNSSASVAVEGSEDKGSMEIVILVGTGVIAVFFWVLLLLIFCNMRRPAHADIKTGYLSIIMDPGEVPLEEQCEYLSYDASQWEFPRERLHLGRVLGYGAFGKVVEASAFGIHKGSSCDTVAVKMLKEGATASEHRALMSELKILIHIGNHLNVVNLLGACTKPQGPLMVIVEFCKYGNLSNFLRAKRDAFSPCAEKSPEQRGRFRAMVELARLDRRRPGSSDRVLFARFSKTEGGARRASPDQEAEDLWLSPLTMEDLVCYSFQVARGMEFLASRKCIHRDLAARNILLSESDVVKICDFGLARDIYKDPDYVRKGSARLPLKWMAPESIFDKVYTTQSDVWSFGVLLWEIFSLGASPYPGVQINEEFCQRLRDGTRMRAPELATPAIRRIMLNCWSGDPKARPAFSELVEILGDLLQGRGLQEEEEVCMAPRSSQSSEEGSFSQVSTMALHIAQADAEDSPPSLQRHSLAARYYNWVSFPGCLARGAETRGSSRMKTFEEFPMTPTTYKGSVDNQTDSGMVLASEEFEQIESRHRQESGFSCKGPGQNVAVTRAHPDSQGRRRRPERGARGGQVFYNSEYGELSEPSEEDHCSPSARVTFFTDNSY
T7 sequence (Q9UKE5 whole entry): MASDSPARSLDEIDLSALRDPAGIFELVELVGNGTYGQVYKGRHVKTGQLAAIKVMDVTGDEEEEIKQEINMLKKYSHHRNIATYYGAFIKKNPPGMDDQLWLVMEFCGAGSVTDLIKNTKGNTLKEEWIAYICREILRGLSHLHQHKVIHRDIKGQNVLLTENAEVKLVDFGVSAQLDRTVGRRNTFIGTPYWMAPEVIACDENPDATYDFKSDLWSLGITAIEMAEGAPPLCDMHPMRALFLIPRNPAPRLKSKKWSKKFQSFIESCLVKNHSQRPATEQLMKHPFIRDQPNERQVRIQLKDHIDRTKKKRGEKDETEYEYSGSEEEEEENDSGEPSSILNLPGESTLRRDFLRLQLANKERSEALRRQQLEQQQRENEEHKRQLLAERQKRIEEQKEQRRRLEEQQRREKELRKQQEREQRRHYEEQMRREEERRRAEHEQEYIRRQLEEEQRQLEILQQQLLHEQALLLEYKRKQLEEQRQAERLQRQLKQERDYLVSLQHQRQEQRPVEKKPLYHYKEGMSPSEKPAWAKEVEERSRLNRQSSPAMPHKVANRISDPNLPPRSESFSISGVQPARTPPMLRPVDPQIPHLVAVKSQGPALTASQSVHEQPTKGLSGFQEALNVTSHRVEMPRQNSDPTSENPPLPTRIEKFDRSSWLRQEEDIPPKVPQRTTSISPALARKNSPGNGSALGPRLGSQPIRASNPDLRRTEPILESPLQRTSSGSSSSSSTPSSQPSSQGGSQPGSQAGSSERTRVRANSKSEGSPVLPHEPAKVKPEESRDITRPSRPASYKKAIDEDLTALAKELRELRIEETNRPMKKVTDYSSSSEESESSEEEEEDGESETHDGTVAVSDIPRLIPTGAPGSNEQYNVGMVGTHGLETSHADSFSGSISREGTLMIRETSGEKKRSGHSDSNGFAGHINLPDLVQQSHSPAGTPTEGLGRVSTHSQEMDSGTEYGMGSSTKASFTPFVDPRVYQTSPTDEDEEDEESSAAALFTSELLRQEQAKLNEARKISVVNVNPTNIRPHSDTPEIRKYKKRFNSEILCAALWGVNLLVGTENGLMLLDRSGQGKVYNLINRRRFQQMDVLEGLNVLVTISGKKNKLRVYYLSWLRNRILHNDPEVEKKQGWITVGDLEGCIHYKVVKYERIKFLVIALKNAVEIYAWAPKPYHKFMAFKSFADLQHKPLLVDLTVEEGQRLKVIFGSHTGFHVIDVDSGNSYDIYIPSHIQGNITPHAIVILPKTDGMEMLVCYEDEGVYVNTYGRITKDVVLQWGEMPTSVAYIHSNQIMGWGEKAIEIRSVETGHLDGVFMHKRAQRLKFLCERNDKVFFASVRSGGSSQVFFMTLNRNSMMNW
T3 sequence (O75460 19-977): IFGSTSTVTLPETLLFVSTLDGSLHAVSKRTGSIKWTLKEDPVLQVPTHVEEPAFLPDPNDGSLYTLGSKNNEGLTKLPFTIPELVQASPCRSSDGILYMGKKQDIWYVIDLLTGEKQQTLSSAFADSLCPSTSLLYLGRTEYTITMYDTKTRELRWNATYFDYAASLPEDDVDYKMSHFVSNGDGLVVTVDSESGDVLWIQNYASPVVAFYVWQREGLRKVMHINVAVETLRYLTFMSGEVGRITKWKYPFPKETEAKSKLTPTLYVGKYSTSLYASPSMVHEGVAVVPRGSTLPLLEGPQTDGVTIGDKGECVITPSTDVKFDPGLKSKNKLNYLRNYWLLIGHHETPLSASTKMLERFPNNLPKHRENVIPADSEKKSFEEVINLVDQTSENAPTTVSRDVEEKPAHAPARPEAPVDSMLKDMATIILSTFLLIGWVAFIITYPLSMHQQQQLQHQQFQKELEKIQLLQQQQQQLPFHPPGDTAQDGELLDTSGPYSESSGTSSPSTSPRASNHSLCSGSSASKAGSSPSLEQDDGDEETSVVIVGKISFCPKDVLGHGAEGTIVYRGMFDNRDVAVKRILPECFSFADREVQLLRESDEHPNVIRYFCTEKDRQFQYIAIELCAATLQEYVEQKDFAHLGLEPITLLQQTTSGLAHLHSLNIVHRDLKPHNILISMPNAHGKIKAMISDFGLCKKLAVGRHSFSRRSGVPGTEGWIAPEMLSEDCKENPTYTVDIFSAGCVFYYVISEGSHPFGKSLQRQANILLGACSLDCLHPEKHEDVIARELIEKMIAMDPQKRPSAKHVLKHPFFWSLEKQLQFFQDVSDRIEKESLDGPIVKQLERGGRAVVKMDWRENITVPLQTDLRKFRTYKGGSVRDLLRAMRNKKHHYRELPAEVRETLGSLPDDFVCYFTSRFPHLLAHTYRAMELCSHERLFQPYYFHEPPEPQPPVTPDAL
T5 sequence (P49840 whole entry): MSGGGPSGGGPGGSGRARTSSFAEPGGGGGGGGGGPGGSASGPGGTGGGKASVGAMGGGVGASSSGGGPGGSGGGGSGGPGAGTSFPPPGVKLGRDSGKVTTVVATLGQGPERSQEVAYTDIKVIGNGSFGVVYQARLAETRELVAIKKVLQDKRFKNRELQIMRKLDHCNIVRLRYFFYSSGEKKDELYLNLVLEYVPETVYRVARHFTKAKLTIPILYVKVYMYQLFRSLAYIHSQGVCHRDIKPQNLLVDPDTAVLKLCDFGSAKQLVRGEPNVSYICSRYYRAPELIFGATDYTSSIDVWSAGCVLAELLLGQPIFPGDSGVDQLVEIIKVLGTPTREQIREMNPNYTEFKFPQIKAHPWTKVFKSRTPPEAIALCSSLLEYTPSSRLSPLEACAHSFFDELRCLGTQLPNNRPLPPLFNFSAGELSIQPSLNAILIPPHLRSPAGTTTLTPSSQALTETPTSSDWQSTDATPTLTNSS

## COc1ccccc1-c1c[nH]c2ncc(-c3ccc(CN4CCN(C)CC4)cc3)cc12 [Compound 7at, 3-(2-Methoxyphenyl)-5-(4-((4-methylpiperazin-1-yl)methyl)phenyl)-1H-pyrrolo[2,3-b]pyridine]
[1]
  remaining activity at 0.1 µM: 90.2%
[2]
  remaining activity at 0.1 µM: 104%
[3]
  remaining activity at 0.1 µM: 101%
[4]
  remaining activity at 0.1 µM: 79.8%
[5]
  remaining activity at 0.1 µM: 82.8%
[6]
  remaining activity at 0.1 µM: 65.5%
[7]
  remaining activity at 0.1 µM: 2.2%

## Cc1nn(C)c(C)c1-c1c[nH]c2ncc(-c3ccc(CN4CCN(C)CC4)cc3)cc12 [Compound 7ai, 5-(4-((4-Methylpiperazin-1-yl)methyl)phenyl)-3-(1,3,5-trimethyl-1H-pyrazol-4-yl)-1H-pyrrolo[2,3-b]pyridine]
[1]
  remaining activity at 0.1 µM: 95.5%
[2]
  remaining activity at 0.1 µM: 106%
[3]
  remaining activity at 0.1 µM: 102%
[4]
  remaining activity at 0.1 µM: 60.3%
[5]
  remaining activity at 0.1 µM: 84.7%
[6]
  remaining activity at 0.1 µM: 102%
[7]
  remaining activity at 0.1 µM: 1.35%

## CN1CCN(Cc2ccc(-c3cnc4[nH]cc(-c5ccncc5)c4c3)cc2)CC1 [Compound 7n, 5-(4-((4-Methylpiperazin-1-yl)methyl)phenyl)-3-(pyridin-4-yl)-1H-pyrrolo[2,3-b]pyridine]
[1]
  remaining activity at 0.1 µM: 96.4%
[2]
  remaining activity at 0.1 µM: 105%
[3]
  remaining activity at 0.1 µM: 107%
[4]
  remaining activity at 0.1 µM: 66%
[5]
  remaining activity at 0.1 µM: 75.3%
[6]
  remaining activity at 0.1 µM: 94.9%
[7]
  remaining activity at 0.1 µM: 6.7%

## CN1CCN(Cc2ccc(-c3cnc4[nH]cc(-c5cnn(Cc6ccccc6)c5)c4c3)cc2)CC1 [Compound 7ah, 3-(1-Benzyl-1H-pyrazol-4-yl)-5-(4-((4-methylpiperazin-1-yl)methyl)phenyl)-1H-pyrrolo[2,3-b]pyridine]
[1]
  remaining activity at 0.1 µM: 48.4%
[2]
  remaining activity at 0.1 µM: 109%
[3]
  remaining activity at 0.1 µM: 104%
[4]
  remaining activity at 0.1 µM: 34%
[5]
  remaining activity at 0.1 µM: 32.5%
[6]
  remaining activity at 0.1 µM: 77.4%
[7]
  remaining activity at 0.1 µM: 0.96%

## CN1CCN(Cc2ccc(-c3cnc4[nH]cc(-c5ccoc5)c4c3)cc2)CC1 [Compound 7w, 3-(Furan-3-yl)-5-(4-((4-methylpiperazin-1-yl)methyl)phenyl)-1H-pyrrolo[2,3-b]pyridine]
[1]
  remaining activity at 0.1 µM: 83.9%
[2]
  remaining activity at 0.1 µM: 112%
[3]
  remaining activity at 0.1 µM: 102%
[4]
  remaining activity at 0.1 µM: 64.6%
[5]
  remaining activity at 0.1 µM: 75.3%
[6]
  remaining activity at 0.1 µM: 95.2%
[7]
  remaining activity at 0.1 µM: 0.45%

## CN1CCN(Cc2ccc(-c3cnc4[nH]cc(-c5cccc(Cl)c5)c4c3)cc2)CC1 [Compound 7ad, 3-(3-Chlorophenyl)-5-(4-((4-methylpiperazin-1-yl)methyl)phenyl)-1H-pyrrolo[2,3-b]pyridine]
[1]
  remaining activity at 0.1 µM: 97.3%
[2]
  remaining activity at 0.1 µM: 119%
[3]
  remaining activity at 0.1 µM: 102%
[4]
  remaining activity at 0.1 µM: 80.5%
[5]
  remaining activity at 0.1 µM: 97.1%
[6]
  remaining activity at 0.1 µM: 92%
[7]
  remaining activity at 0.1 µM: 0.68%

## CN1CCN(Cc2ccc(-c3cnc4[nH]cc(-c5ccc6[nH]ccc6c5)c4c3)cc2)CC1 [Compound 1, 3-(1H-Indol-5-yl)-5-(4-((4-methylpiperazin-1-yl)methyl)phenyl)-1H-pyrrolo[2,3-b]pyridine, reference compound]
[1]
  remaining activity at 0.1 µM: 81.4%
[2]
  remaining activity at 0.1 µM: 112%
[3]
  remaining activity at 0.1 µM: 108%
[4]
  remaining activity at 0.1 µM: 34.5%
[5]
  remaining activity at 0.1 µM: 90.8%
[6]
  remaining activity at 0.1 µM: 84%
[7]
  remaining activity at 0.1 µM: 3%

## CN1CCN(Cc2ccc(-c3cnc4[nH]cc(-c5ccc6c(c5)OCCO6)c4c3)cc2)CC1 [Compound 7d, 3-(2,3-Dihydrobenzo[b][1,4]dioxin-6-yl)-5-(4-((4-methylpiperazin-1-yl)methyl)phenyl)-1H-pyrrolo[2,3-b]pyridine]
[1]
  remaining activity at 0.1 µM: 74.8%
[2]
  remaining activity at 0.1 µM: 98.6%
[3]
  remaining activity at 0.1 µM: 107%
[4]
  remaining activity at 0.1 µM: 39%
[5]
  remaining activity at 0.1 µM: 13.6%
[6]
  remaining activity at 0.1 µM: 67.9%
[7]
  remaining activity at 0.1 µM: 12.1%

## CN1CCN(Cc2ccc(-c3cnc4[nH]cc(-c5ccccc5Cl)c4c3)cc2)CC1 [Compound 7as, 3-(2-Chlorophenyl)-5-(4-((4-methylpiperazin-1-yl)methyl)phenyl)-1H-pyrrolo[2,3-b]pyridine]
[1]
  remaining activity at 0.1 µM: 81.1%
[2]
  remaining activity at 0.1 µM: 113%
[3]
  remaining activity at 0.1 µM: 97.5%
[4]
  remaining activity at 0.1 µM: 23.2%
[5]
  remaining activity at 0.1 µM: 96%
[6]
  remaining activity at 0.1 µM: 69.8%
[7]
  remaining activity at 0.1 µM: 0.51%
